# Experimental data taken from patent publication US20110237686A1, “FORMULATIONS AND METHODS OF USE” (Cerulean Pharma Inc, priority 2010, published 2011).
# Several values for one entry are separate records, joined by “and”; a condition that tells them apart may be missing. Identical values can stand only once.
# Legend:
# B16.F10 cells = test: CellTiter-Glo Luminescent Cell Viability Assay (cytotoxicity of nanoparticles); format: cell-based, mouse; details: for IC50: Mus musculus, B16.F10 cells, 24, 48 and 72 hours of incubation tested, time of the IC50 not stated
# Procedure: The Cytotoxicity of nanoparticles formed from polymer drug conjugates was evaluated using the following protocol. […] B16.F10 cells, grown to 85-90% confluency in 150 cm^2 flasks (passage<30), were resuspended in media (MEM-alpha, 10% HI-FBS, 1× antibiotic-antimycotic) and added to 96-well opaque-clear bottom plates at a concentration of 1500 cells/well in 200 μL/well. The cells were incubated at 37° C. with 5% CO2 for 24 hours. The following day, serial dilutions of 2×concentrated particles and 2× concentrated free drug were made in 12-well reservoirs with media to specified concentrations. The media in the plates was replaced with 100 μL of fresh media and 100 μL of the corresponding serially diluted drug. Three sets of plates were prepared with duplicate treatments. Following 24, 48 and 72 hours of incubation at 37° C. with 5% CO2, the media in the plates was replaced with 100 μL of fresh media and […] of CTG solution, and then incubated for 5 minutes on a plate shaker at room temperature set to 450 rpm and allowed to rest for 15 minutes. Viable cells were measured by luminescence using a microtiter plate reader. The data was plotted as % viability vs. concentration and standardized to untreated cells.
# [1] = tested on: HCT-116 colon xenograft model; test: In vivo efficacy in HCT-116 colon xenograft model; set-up: species or system mouse; details: 30 mg/kg IV; male CD-1 nude mice
# Procedure: HCT-116 cells were grown in culture to confluency in McCoy's 5a medium containing 10% FBS and 1% penicillin/streptomycin and then resuspended in McCoy's 5a (passage 4).
# The treatments were administered 1V into the tail vein at the respective dose volumes (refer to previous paragraph), beginning on post-implantation Day 13, when the mean tumor volume was 131 mm3.
# [2] = tested on: SK-OV-3 ovarian human xenograft model; test: In vivo efficacy in SK-OV-3 ovarian human xenograft model; set-up: species or system mouse
# Procedure: SK-OV-3 cells were grown in culture to confluency in RPMI medium containing 10% FBS and 1% penicillin/streptomycin and then resuspended in RPMI (passage 4) for implantation into mice. […]
# [3] = tested on: MDA-MB-435 melanoma human xenograft model; test: In vivo efficacy in MDA-MB-435 melanoma human xenograft model; set-up: species or system mouse
# Procedure: MDA-MB-435 cells were grown in culture to confluency in RPMI medium containing 10% FBS and 1% penicillin/streptomycin and then resuspended in RPMI (passage 4) for implantation into mice. A volume of 0.1 mL containing 4.0×10^6 cells MDA-MB-435 cells were implanted into the mammary gland of female CD-1 nude mice on Day 1.
# [4] = tested on: normal male C57BL/6 non-tumor-bearing mice; test: Tolerability in normal non-tumor-bearing mice (body weight, CBC, serum chemistry, ataxia, sciatic nerve histology); format: in vivo, mouse; details: for Lymphocyte mean / Neutrophil mean / WBC # mean: blood Day 14; for mice developing ataxia / Ataxia (%): n=5/group; for Ataxia (%): intravenous q7d×2, male C57BL/6 mice, to Day 14
# Procedure: Treatments were administered intravenously on a q7d×2 schedule, i.e., two treatments seven days apart (the first treatment was on Day one). The study ended on Day 14, six days after the 2nd treatment. Blood was collected for complete blood count (CBC) and serum chemistry. Leg muscles were collected so that nerve degeneration could be assessed from the sciatic nerve.
# [5] = tested on: B16.F10 murine melanoma model; test: Efficacy and tolerability of PEGylated docetaxel-5050 PLGA-O-acetyl nanoparticles in B16.F10 murine melanoma model; format: in vivo, mouse
# Procedure: Refer to table for detailed description of formulations.
# Tumor volume was calculated with the following equation: (width×width×length)/2 mm3.
# [6] = Lyophilization using HP-β-CD, freezing with liquid nitrogen and vacuum at room temperature; format: physicochemical; details: PEGylated nanoparticles A, polymer 31.25 mg/mL, cryoprotectant 40 mg/mL (1.28:1 w/w), vacuum at room temperature;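 also: cyclodextrins or their derivatives tested as cryoprotectant during lyophilization of PEGylated nanoparticles, assessing particle size growth attributed to PEG crystallization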
# Procedure: In this example, a new strategy of using cyclodextrins and their derivatives as a cryoprotectant was tested. […] A cryoprotectant is needed to lyophilize liquid formulation that contain PEGylated nanoparticles A (Entries #1 and #2).
# [7] = Simple lyophilization of PLGA7K-PVA-PEG2K-30 and PLGA7K-PVA-PEG5K-30 PEGylated nanoparticle formulations; format: physicochemical; details: 2K PEG PLGA nanoparticles 20 mg/mL, cryoprotectant 20 mg/mL (1:1 w/w)
# Description: The results are similar to that obtained for PEGylated nanoparticles A except for SB-β-CD. The result from SB-β-CD supported the H-bonding mechanism for cryoprotection of PEGylated PLGA nanoparticles since SB-β-CD has less hydroxyl groups than α-CD, γ-CD and HP-β-CD (about ⅓ of —OH groups of β-CD are substituted by sulfobutyl groups).
# [8] = Cryoprotectant screen, sucrose lyophilization cycle; format: physicochemical; details: PEGylated nanoparticles A; for Dv90 / PDI / Zave: reconstituted
# Procedure: A cryoprotectant screen was performed as follows.
# These conditions are shown below in Table 21.
# [9] = Lyophilization of stealth liposome (Doxil); format: physicochemical; details: lipids 16 mg/mL, Sucrose lyophilization cycle, post lyophilization
# [10] = q4dq3dx3, 15 mg/kg IV, male C57BL/6 mice
# [11] = q7d schedule, three times once every week, 15 mg/kg
# [12] = polymer 10.42 mg/mL (Doce. 0.50), cryoprotectant 100 mg/mL (9.6:1 w/w)
# [13] = polymer 20.83 mg/mL (Doce. 1.00), cryoprotectant 100 mg/mL (4.8:1 w/w)
# [14] = polymer 26.05 mg/mL (Doce. 1.25), cryoprotectant 100 mg/mL (3.8:1 w/w)
# [15] = polymer 31.25 mg/mL (Doce. 1.5), cryoprotectant 100 mg/mL (3.2:1 w/w)
# [16] = cryoprotectant 100 mg/mL (6.25:1 w/w lipid)
# [17] = cryoprotectant 150 mg/mL (12.5:1 w/w lipid)
# [18] = cryoprotectant 200 mg/mL (18.5:1 w/w lipid)
compound,measurement,setting,value
"CC(=O)O[C@@]12CO[C@@H]1C[C@H](O)[C@@]1(C)C(=O)[C@H](O)C3=C(C)[C@@H](OC(=O)[C@H](O)[C@@H](NC(=O)OC(C)(C)C)c4ccccc4)C[C@@](O)([C@@H](OC(=O)c4ccccc4)[C@H]21)C3(C)C [Free docetaxel, docetaxel]",IC50,B16.F10 cells,0.13 µM
same,Maximum body weight loss,[1],14%
same,Maximum body weight loss,[2]; 30 mg/kg weekly×2,13%
same,ataxia,[2]; 30 mg/kg weekly×2,did not cause ataxia
same,body weight loss,"[2]; 60 mg/kg IV Days 51 and 58 (weekly×2), female CD-1 nude mice",greater than 20%
same,ataxia,"[2]; 60 mg/kg weekly×2, four days after the second treatment",observed in all the mice
same,Maximum body weight loss,[3]; 15 mg/kg IV Days 21 and 28 (weekly×2),10%
same,Maximum body weight loss,[3]; 30 mg/kg IV Days 21 and 28 (weekly×2),14%
same,ataxia,[3]; 30 mg/kg weekly×2,did not cause ataxia
same,body weight loss,"[3]; 60 mg/kg IV Days 21 and 28 (weekly×2), female CD-1 nude mice",greater than 20%
same,ataxia,"[3]; 60 mg/kg weekly×2, listed as docetaxel",developed ataxia
same,ataxia,"[3]; 60 mg/kg weekly×2, listed as free docetaxel",Ataxia was observed
same,body weight above initial on Day 14,[4]; 30 mg/kg IV q7d×2,3%
same,Lymphocyte mean,[4]; 30 mg/kg IV q7d×2,4350 cells/μL
same,Neutrophil mean,[4]; 30 mg/kg IV q7d×2,556 cells/μL
same,WBC # mean,[4]; 30 mg/kg IV q7d×2,5.1 ×1000 cells/μL
same,mice developing ataxia,[4]; 30 mg/kg IV q7d×2,no mice
same,body weight above initial on Day 14,[4]; 45 mg/kg IV q7d×2,2%
same,Lymphocyte mean,[4]; 45 mg/kg IV q7d×2,6780 cells/μL
same,Neutrophil mean,[4]; 45 mg/kg IV q7d×2,752 cells/μL
same,WBC # mean,[4]; 45 mg/kg IV q7d×2,7.8 ×1000 cells/μL
same,mice developing ataxia,"[4]; 45 mg/kg IV q7d×2, Day 14",One mouse
same,"body weight lost after the second treatment, by the end of the study","[4]; 60 mg/kg IV q7d×2, Day 14",19%
same,Lymphocyte mean,[4]; 60 mg/kg IV q7d×2,5590 cells/μL
same,Neutrophil mean,[4]; 60 mg/kg IV q7d×2,470 cells/μL
same,WBC # mean,[4]; 60 mg/kg IV q7d×2,6.2 ×1000 cells/μL
same,mice developing ataxia,[4]; 60 mg/kg IV q7d×2,Five out of five mice
same,Ataxia (%),[4]; dose 30 mg/kg,0%
same,Ataxia (%),[4]; dose 45 mg/kg,20%
same,Ataxia (%),[4]; dose 60 mg/kg,100%
same,serum chemistry parameters,[4]; doses up to 60 mg/kg,did not affect any serum chemistry parameter
same,Maximum body weight loss,"[5]; q3dq4dx3, 15 mg/kg IV, male C57BL/6 mice, listed as Docetaxel",12% and 11%
same,Maximum body weight loss,"[5]; q3dq4dx3, 15 mg/kg IV, male C57BL/6 mice, listed as docetaxel",12% and 11%
same,Maximum body weight loss,[5]; [10],11%
same,Tumor growth delay (TGD),[5]; [10],11 days
same,Tumor growth inhibition (TGI),[5]; [10],90%
same,Maximum body weight loss,"[5]; q7dx3, 30 mg/kg IV, male C57BL/6 mice",11%
same,Maximum body weight loss,"[5]; q14dx2, 60 mg/kg IV, male C57BL/6 mice, listed as Docetaxel",0%
same,Maximum body weight loss,"[5]; q14dx2, 60 mg/kg IV, male C57BL/6 mice, listed as docetaxel",did not show any body weight loss
same,Maximum body weight loss,[5]; [11],11%
same,TGD,[5]; [11],11 days
"COc1cccc2c1C(=O)c1c(O)c3c(c(O)c1C2=O)C[C@@](O)(C(=O)CO)C[C@@H]3O[C@H]1C[C@H](N)[C@H](O)[C@H](C)O1 [Free doxorubicin, doxorubicin]",IC50,B16.F10 cells,14 µM
"CC(=O)O[C@H]1C(=O)[C@@]2(C)[C@H]([C@H](OC(=O)c3ccccc3)[C@]3(O)C[C@H](OC(=O)[C@H](O)[C@@H](NC(=O)c4ccccc4)c4ccccc4)C(C)=C1C3(C)C)[C@]1(OC(C)=O)CO[C@@H]1C[C@@H]2O [Free paclitaxel, paclitaxel]",IC50,B16.F10 cells,7 µM
"OC[C@H]1O[C@@](CO)(O[C@H]2O[C@H](CO)[C@@H](O)[C@H](O)[C@H]2O)[C@@H](O)[C@@H]1O [Sucrose, sucrose]",Dv90,[6],155 nm
same,PDI,[6],0.207
same,Reconstituted Solution appearance,[6],precipitation
same,Zave,[6],197.2 nm
same,outcome after lyophilization (in place of particle size),[7],Precipitated
same,Filtration Loss (0.2 μm PES Filter),[8]; [12],2%
same,Lyophilized preparation Appearance,[8]; [12],good
same,Recon. Solution Appearance,[8]; [12],good
same,Dv90,[8]; [12],120 nm
same,PDI,[8]; [12],0.081
same,Zave,[8]; [12],90.62 nm
same,Filtration Loss (0.2 μm PES Filter),[8]; [13],2%
same,Lyophilized preparation Appearance,[8]; [13],good
same,Recon. Solution Appearance,[8]; [13],good
same,Dv90,[8]; [13],120 nm
same,PDI,[8]; [13],0.081
same,Zave,[8]; [13],91.37 nm
same,Filtration Loss (0.2 μm PES Filter),[8]; [14],10%
same,Lyophilized preparation Appearance,[8]; [14],good
same,Recon. Solution Appearance,[8]; [14],good
same,PDI,[8]; [14],0.110
same,Zave,[8]; [14],92.79 nm
same,Lyophilized preparation Appearance,[8]; [15],good
same,Recon. Solution Appearance,[8]; [15],slight
same,Filtration Loss (0.2 μm PES Filter),"[8]; polymer 31.25 mg/mL (Doce. 1.50), cryoprotectant 100 mg/mL (3.2:1 w/w)",15%
same,PDI,[8]; [15],0.125
same,Zave,[8]; [15],94.72 nm
same,Dv90,[9]; [16],58.5 nm
same,PDI,[9]; [16],0.390
same,Zave,[9]; [16],142.4 nm
same,Dv90,[9]; [17],533 nm
same,PDI,[9]; [17],0.484
same,Zave,[9]; [17],219.3 nm
same,Dv90,[9]; [18],1640 nm
same,PDI,[9]; [18],0.506
same,Zave,[9]; [18],200.2 nm
doxorubicin 5050 PLGA amide,growth of B16.F10 cells,"B16.F10 cells; 24, 48 and 72 hours of incubation",inhibited the growth of B16.F10 cells in a dose and time dependent manner
